Test results as given in US20210087279A1, “REGULATABLE CHIMERIC ANTIGEN RECEPTOR” (Novartis AG, priority 2014, published 2021).

Key:
Assay type in all cases: cell-based
[1] = test system: reporter under NFAT control in JNL cells; assay: Dimerization molecule dose response, single vector construct 143775 in JNL cells, CD19 target; conditions: nM to sub-nM doses
Source text: The constructs and viral particles were made and tested essentially as described in Example 11. Viral particles were introduced into JNL cells and evaluated for activity essentially as described in Example 1 except that the target was CD19 (as opposed to EGFRviii).
Construct 143775 was introduced into cells and the affect of dimerization molecule concentration on activation evaluated essentially as described in Example 14.

[2] = test system: NFAT activity in Jurkat cells with NFAT-LUC reporter (JNL); assay: Activation of RCAR with extracellular FKBP/FRB switch by RAD001; conditions: for RAD001 dose at which NFAT activity peaked: 0-50 nM tested
Method: In this example, the activation of RCAR with an extracellular switch was evaluated in the presence of the dimerization molecule RAD001. Four RCARs were tested: two half switch constructs, e.g., with the dimerization switch in both orientations (FIG. 34A), and two full switch constructs, e.g., with the dimerization switch in both orientations (FIG. 34B), where the dimerization switch is an extracellular FKBP/FRB dimerization, as depicted in FIGS. 34A and 34B. In the half-switch constructs, the antigen binding member comprises a scFV domain, an extracellular switch domain, a transmembrane domain, an intracellular costimulatory signaling domain 4-1BB, and the intracellular signaling member comprises an extracellular switch domain, a transmembrane domain, and an intracellular primary signaling domain, CD3zeta (FIG. 34A). In the full-switch constructs, the antigen binding member comprises a scFv domain, an extracellular switch domain, and a transmembrane domain, and the intracellular signaling member comprises an extracellular switch domain, a transmembrane domain, an intracellular costimulatory signaling domain, 4-1BB, and an intracellular primary signaling domain, CD3zeta (FIG. 34B).
The RCAR constructs were expressed in a Jurkat reporter cell line. Jurkat cells with NFAT-LUC reporter (JNL) were grown to the density of 0.5×10^6/ml in Jurkat cell growth media with puromycin at 0.5 μg/ml. For each transfection 2.5×10^6 cells were spin down at 100 g for 10 minutes. Two μg of DNA per RCAR construct were used per transfection. Amaxa Nucleofector solution V and supplement I was mixed and 100 μl was added into the tube with DNA construct. The mixture was then added to the cells and transferred to the electroporation cuvette. Electroporation was done under setting X-001 using Amaxa Nucleofector II Device. […]
After one hour, RAD001 compound was applied at various concentrations: 0 nM, 0.01 nM, 0.03 nM, 0.1 nM, 0.3 nM, 1 nM, 5 nM, and 50 nM. […] The samples were incubated for 5 min at 37° C. and then luminescence was measured using Envision plate reader.

[3] = test system: luciferase-expressing Nalm6 (human pre-B ALL) cell line; assay: Killing assay with RCAR-expressing primary T cells; conditions: effector:target 1:1; 20 hours
Method: The ability for RCAR T cells (RCAR T cell generation described above) to target and kill tumor cells was assessed in vitro. A luciferase-based assay was used, with tumor cell lines expressing luciferase reporters. Target cells (tumor cells) were plated at 25,000 cells/well. RCAR T cells, as well as standard CAR-expressing T cells and T cells expressing no CARs were added at the effector:target ratio 1:1 in duplicates. Additionally, RAD001 was added in seven 5-fold dilution steps, starting at 50 nM. One duplicate received pure medium, no RAD001. The cells were cultured for 20 hours, after which the luminescence of each well was detected to determine the percentage of target cells killed (BrightGlo, Promega protocol). Specific killing (%)=[…]. The luciferase-expressing Nalm6 (human pre-B ALL) cell line was used as the target cell.

[4] = test system: NFAT activity in Jurkat cells with NFAT-LUC reporter (JNL); assay: Activation of RCAR half switches (intracellular FKBP/FRB) by RAD001; conditions: both half switches (CD28 or 4-1BB); 0-10 nM tested
Method: In this example, the activation of a RCAR half switch was evaluated in the presence of the dimerization molecule RAD001. Two RCAR constructs were tested where the dimerization switch is an intracellular FKBP/FRB dimerization switch, and the switch domains are located in both orientations with respect to the antigen binding member and the intracellular member. For example, the antigen binding member comprises a scFV domain, a transmembrane domain, an intracellular switch domain, and an intracellular costimulatory signaling domain; and the intracellular signaling member comprises an […] switch domain, a transmembrane domain, and an intracellular primary signaling domain, e.g., CD3zeta (FIG. 36A).
Jurkat cells with NFAT-LUC reporter (JNL) were grown to the density of 0.5×10^6/ml in Jurkat cell growth media with puromycin at 0.5 μg/ml. For each transfection 2.5×10^6 cells were spin down at 100 g for 10 minutes. Two μg of DNA per construct were used per transfection. […]
After one hour, RAD001 compound was delivered at 50 nM when testing RCARs with different costimulatory signaling domains (FIGS. 36A-B), or various concentrations: 0 nM, 0.01 nM, 0.03 nM, 0.1 nM, 0.3 nM, 1 nM, 3 nM, and 10 nM (FIGS. 37A-B). […] The samples were incubated for 5 min at 37° C. and then luminescence is measured using Envision plate reader.

SMILES: CO[C@H]1C[C@@H]2CC[C@@H](C)[C@@](O)(O2)C(=O)C(=O)N2CCCC[C@H]2C(=O)O[C@H]([C@H](C)C[C@@H]2CC[C@@H](OCCO)[C@H](OC)C2)CC(=O)[C@H](C)/C=C(\C)[C@@H](O)[C@@H](OC)C(=O)[C@H](C)C[C@H](C)/C=C/C=C/C=C/1C [RAD001, (1R,9S,12S,15R,16E,18R,19R,21R,23S,24E,26E,28E,30S,32S,35R)-1,18-dihydroxy-12-{(1R)-2-[(1S,3R,4R)-4-(2-hydroxyethoxy)-3-methoxycyclohexyl]-1-methylethyl}-19,30-dimethoxy-15,17,21,23,29,35-hexamethyl-11,36-dioxa-4-aza-tricyclo[30.3.1.04,9]hexatriaconta-16,24,26,28-tetraene-2,3,10,14,20-pentaone]
- activation [1]: effective at a broad range of concentrations
- RAD001 dose at which NFAT activity peaked ([2]; extracellular RCAR full switches): 1 nM
- inhibition of NFAT activity at higher dosages ([2]; extracellular half switch 1, 5 nM and 50 nM): no inhibition of activity
- RAD001 dose at which NFAT activity peaked ([2]; extracellular half switch 2): 1 nM
- RAD001 concentration at maximal killing by RCAR-expressing T cells [3]: around 1 nM
- RAD001 concentration at which NFAT activity peaked [4]: 1 nM
